Measurements from patent US12660819B2, “Herbicidal derivatives” (SYNGENTA CROP PROTECTION AG, priority 2020, dated 2026).

Key:
Format in all cases: in vivo
[1] = tested on: Amaranthus retoflexus (AMARE); experiment: Pre-emergence Test (glasshouse, percentage damage to the plant); conditions: 1000 g/ha unless otherwise stated, five-point scale
[2] = tested on: Echinochloa crus-galli (ECHCG); experiment: as above; conditions: 1000 g/ha unless otherwise stated, five-point scale
Setaria faberi (SETFA) [3] = experiment: Post-emergence Test (glasshouse, percentage damage to the plant); conditions: post-emergence spray, 1000 g/ha unless otherwise stated, evaluated after 13 days
Summary of the method: (§1)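 Percentage damage to the plant, assessed 13 days after application and scored 1–5 in 20% bands. Pots sown in standard soil received compound at 1000 g/ha unless otherwise stated, sprayed under 24/16 °C, 14 h light, 65% humidity.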

Lolium perenne (LOLPE) [4] = experiment: as above; conditions: post-emergence spray, 1000 g/ha unless otherwise stated, evaluated after 13 days
Summary of the method: (§2)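 Sown pots; spray 1000 g/ha (unless stated) in acetone/water 50:50 + 0.5% Tween 20; glasshouse 24/16 °C, 14 h light, 65% RH; watered twice daily; % damage read at 13 days, scored 1–5.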

[5] = tested on: Amaranthus retoflexus (AMARE); experiment: as above; conditions: post-emergence spray, 1000 g/ha unless otherwise stated, evaluated after 13 days
Summary of the method: as §2

[6] = tested on: Echinochloa crus-galli (ECHCG); experiment: as above; conditions: post-emergence spray, 1000 g/ha unless otherwise stated, evaluated after 13 days
Summary of the method: as §2

[7] = tested on: Ipomoea hederacea (IPOHE); experiment: as above; conditions: post-emergence spray, 1000 g/ha unless otherwise stated, evaluated after 13 days
Summary of the method: as §1

Solanum nigrum (SOLNI) [8] = experiment: as above; conditions: post-emergence spray, 1000 g/ha unless otherwise stated, evaluated after 13 days
Summary of the method: as §2

Lolium perenne (LOLPE) [9] = experiment: Pre-emergence Test (glasshouse, percentage damage to the plant); conditions: 1000 g/ha unless otherwise stated, five-point scale
[10] = tested on: Ipomoea hederacea (IPOHE); experiment: as above; conditions: 1000 g/ha unless otherwise stated, five-point scale
Setaria faberi (SETFA) [11] = experiment: as above; conditions: 1000 g/ha unless otherwise stated, five-point scale
Solanum nigrum (SOLNI) [12] = experiment: as above; conditions: 1000 g/ha unless otherwise stated, five-point scale

## CCn1c(C)c(-c2ccsc2)c(=O)c(C(=O)O)c1-c1ccc(Cl)c(Cl)c1 [Compound 30, 2-(3,4-dichlorophenyl)-1-ethyl-6-methyl-4-oxo-5-(3-thienyl)pyridine-3-carboxylic acid]
[1]
  percentage damage to the plant, AMARE: 1 (1=0-20%)
[2]
  percentage damage to the plant, ECHCG: 3 (3=41-60%)
Setaria faberi (SETFA) [3]
  Post-emergence Test SETFA, percentage damage to the plant (five-point scale): 3 (3=41-60%)
Lolium perenne (LOLPE) [4]
  Post-emergence Test LOLPE, percentage damage to the plant (five-point scale): 2 (2=21-40%)
[5]
  Post-emergence Test AMARE, percentage damage to the plant (five-point scale): 4 (4=61-80%)
[6]
  Post-emergence Test ECHCG, percentage damage to the plant (five-point scale): 2 (2=21-40%)
[7]
  Post-emergence Test IPOHE, percentage damage to the plant (five-point scale): 3 (3=41-60%)
Solanum nigrum (SOLNI) [8]
  Post-emergence Test SOLNI, percentage damage to the plant (five-point scale): 3 (3=41-60%)
Lolium perenne (LOLPE) [9]
  percentage damage to the plant, LOLPE: 2 (2=21-40%)
[10]
  percentage damage to the plant, IPOHE: 2 (2=21-40%)
Setaria faberi (SETFA) [11]
  percentage damage to the plant, SETFA: 4 (4=61-80%)
Solanum nigrum (SOLNI) [12]
  percentage damage to the plant, SOLNI: 2 (2=21-40%)

## CCn1c(C)c(-c2ncco2)c(=O)c(C(=O)O)c1-c1ccc(Cl)c(Cl)c1 [Compound 27, 2-(3,4-dichlorophenyl)-1-ethyl-6-methyl-5-oxazol-2-yl-4-oxo-pyridine-3-carboxylic acid]
[1]
  percentage damage to the plant, AMARE: 1 (1=0-20%)
[2]
  percentage damage to the plant, ECHCG: 1 (1=0-20%)
Setaria faberi (SETFA) [3]
  Post-emergence Test SETFA, percentage damage to the plant (five-point scale): 3 (3=41-60%)
Lolium perenne (LOLPE) [4]
  Post-emergence Test LOLPE, percentage damage to the plant (five-point scale): 1 (1=0-20%)
[5]
  Post-emergence Test AMARE, percentage damage to the plant (five-point scale): 3 (3=41-60%)
[6]
  Post-emergence Test ECHCG, percentage damage to the plant (five-point scale): 3 (3=41-60%)
[7]
  Post-emergence Test IPOHE, percentage damage to the plant (five-point scale): 2 (2=21-40%)
Solanum nigrum (SOLNI) [8]
  Post-emergence Test SOLNI, percentage damage to the plant (five-point scale): 3 (3=41-60%)
Lolium perenne (LOLPE) [9]
  percentage damage to the plant, LOLPE: 1 (1=0-20%)
[10]
  percentage damage to the plant, IPOHE: 1 (1=0-20%)
Setaria faberi (SETFA) [11]
  percentage damage to the plant, SETFA: 1 (1=0-20%)
Solanum nigrum (SOLNI) [12]
  percentage damage to the plant, SOLNI: 1 (1=0-20%)

## CCn1c(C)c(-c2ccc(S(C)(=O)=O)cc2)c(=O)c(C(=O)O)c1-c1ccc(Cl)c(Cl)c1 [Compound 32, 2-(3,4-dichlorophenyl)-1-ethyl-6-methyl-5-(4-methylsulfonylphenyl)-4-oxo-pyridine-3-carboxylic acid]
[1]
  percentage damage to the plant, AMARE: 1 (1=0-20%)
[2]
  percentage damage to the plant, ECHCG: 4 (4=61-80%)
Setaria faberi (SETFA) [3]
  Post-emergence Test SETFA, percentage damage to the plant (five-point scale): 3 (3=41-60%)
Lolium perenne (LOLPE) [4]
  Post-emergence Test LOLPE, percentage damage to the plant (five-point scale): 1 (1=0-20%)
[5]
  Post-emergence Test AMARE, percentage damage to the plant (five-point scale): 1 (1=0-20%)
[6]
  Post-emergence Test ECHCG, percentage damage to the plant (five-point scale): 4 (4=61-80%)
[7]
  Post-emergence Test IPOHE, percentage damage to the plant (five-point scale): 1 (1=0-20%)
Solanum nigrum (SOLNI) [8]
  Post-emergence Test SOLNI, percentage damage to the plant (five-point scale): 3 (3=41-60%)
Lolium perenne (LOLPE) [9]
  percentage damage to the plant, LOLPE: 1 (1=0-20%)
[10]
  percentage damage to the plant, IPOHE: 1 (1=0-20%)
Setaria faberi (SETFA) [11]
  percentage damage to the plant, SETFA: 4 (4=61-80%)
Solanum nigrum (SOLNI) [12]
  percentage damage to the plant, SOLNI: 1 (1=0-20%)

## Cc1c(-c2ccc(Cl)cc2)c(=O)c(C(=O)O)c(-c2ccc(Cl)c(Cl)c2)n1C [Compound 5, 5-(4-chlorophenyl)-2-(3,4-dichlorophenyl)-1,6-dimethyl-4-oxo-pyridine-3-carboxylic acid]
[1]
  percentage damage to the plant, AMARE: 4 (4=61-80%)
[2]
  percentage damage to the plant, ECHCG: 4 (4=61-80%)
Setaria faberi (SETFA) [3]
  Post-emergence Test SETFA, percentage damage to the plant (five-point scale): 5 (5=81-100%)
Lolium perenne (LOLPE) [4]
  Post-emergence Test LOLPE, percentage damage to the plant (five-point scale): 1 (1=0-20%)
[5]
  Post-emergence Test AMARE, percentage damage to the plant (five-point scale): 3 (3=41-60%)
[6]
  Post-emergence Test ECHCG, percentage damage to the plant (five-point scale): 5 (5=81-100%)
[7]
  Post-emergence Test IPOHE, percentage damage to the plant (five-point scale): 3 (3=41-60%)
Solanum nigrum (SOLNI) [8]
  Post-emergence Test SOLNI, percentage damage to the plant (five-point scale): 2 (2=21-40%)
Lolium perenne (LOLPE) [9]
  percentage damage to the plant, LOLPE: 4 (4=61-80%)
[10]
  percentage damage to the plant, IPOHE: 4 (4=61-80%)
Setaria faberi (SETFA) [11]
  percentage damage to the plant, SETFA: 4 (4=61-80%)
Solanum nigrum (SOLNI) [12]
  percentage damage to the plant, SOLNI: 4 (4=61-80%)

## CCn1c(C)c(-c2cncn2C)c(=O)c(C(=O)O)c1-c1ccc(Cl)c(Cl)c1 [Compound 40, 2-(3,4-dichlorophenyl)-1-ethyl-6-methyl-5-(3-methylimidazol-4-yl)-4-oxo-pyridine-3-carboxylic acid]
[1]
  percentage damage to the plant, AMARE: 1 (1=0-20%)
[2]
  percentage damage to the plant, ECHCG: 1 (1=0-20%)
Setaria faberi (SETFA) [3]
  Post-emergence Test SETFA, percentage damage to the plant (five-point scale): 1 (1=0-20%)
Lolium perenne (LOLPE) [4]
  Post-emergence Test LOLPE, percentage damage to the plant (five-point scale): 1 (1=0-20%)
[5]
  Post-emergence Test AMARE, percentage damage to the plant (five-point scale): 1 (1=0-20%)
[6]
  Post-emergence Test ECHCG, percentage damage to the plant (five-point scale): 1 (1=0-20%)
[7]
  Post-emergence Test IPOHE, percentage damage to the plant (five-point scale): 1 (1=0-20%)
Solanum nigrum (SOLNI) [8]
  Post-emergence Test SOLNI, percentage damage to the plant (five-point scale): 2 (2=21-40%)
Lolium perenne (LOLPE) [9]
  percentage damage to the plant, LOLPE: 1 (1=0-20%)
[10]
  percentage damage to the plant, IPOHE: 1 (1=0-20%)
Setaria faberi (SETFA) [11]
  percentage damage to the plant, SETFA: 1 (1=0-20%)
Solanum nigrum (SOLNI) [12]
  percentage damage to the plant, SOLNI: 1 (1=0-20%)

## CCn1c(C)c(-c2ccccc2Cl)c(=O)c(C(=O)O)c1-c1ccc(Cl)c(Cl)c1 [Compound 13, 5-(2-chlorophenyl)-2-(3,4-dichlorophenyl)-1-ethyl-6-methyl-4-oxo-pyridine-3-carboxylic acid]
[1]
  percentage damage to the plant, AMARE: 4 (4=61-80%)
[2]
  percentage damage to the plant, ECHCG: 5 (5=81-100%)
Setaria faberi (SETFA) [3]
  Post-emergence Test SETFA, percentage damage to the plant (five-point scale): 4 (4=61-80%)
Lolium perenne (LOLPE) [4]
  Post-emergence Test LOLPE, percentage damage to the plant (five-point scale): 4 (4=61-80%)
[5]
  Post-emergence Test AMARE, percentage damage to the plant (five-point scale): 4 (4=61-80%)
[6]
  Post-emergence Test ECHCG, percentage damage to the plant (five-point scale): 4 (4=61-80%)
[7]
  Post-emergence Test IPOHE, percentage damage to the plant (five-point scale): 4 (4=61-80%)
Solanum nigrum (SOLNI) [8]
  Post-emergence Test SOLNI, percentage damage to the plant (five-point scale): 3 (3=41-60%)
Lolium perenne (LOLPE) [9]
  percentage damage to the plant, LOLPE: 2 (2=21-40%)
[10]
  percentage damage to the plant, IPOHE: 4 (4=61-80%)
Setaria faberi (SETFA) [11]
  percentage damage to the plant, SETFA: 5 (5=81-100%)
Solanum nigrum (SOLNI) [12]
  percentage damage to the plant, SOLNI: 4 (4=61-80%)

## CCn1c(C)c(-c2cccnc2)c(=O)c(C(=O)O)c1-c1ccc(Cl)c(Cl)c1 [Compound 21, 2-(3,4-dichlorophenyl)-1-ethyl-6-methyl-4-oxo-5-pyridin-1-ium-3-yl-pyridine-3-carboxylic acid;2,2,2-trifluoroacetate]
[2]
  percentage damage to the plant, ECHCG: 2 (2=21-40%)
[5]
  Post-emergence Test AMARE, percentage damage to the plant (five-point scale): 3 (3=41-60%)
[6]
  Post-emergence Test ECHCG, percentage damage to the plant (five-point scale): 3 (3=41-60%)
[7]
  Post-emergence Test IPOHE, percentage damage to the plant (five-point scale): 3 (3=41-60%)
Solanum nigrum (SOLNI) [8]
  Post-emergence Test SOLNI, percentage damage to the plant (five-point scale): 4 (4=61-80%)
Setaria faberi (SETFA) [11]
  percentage damage to the plant, SETFA: 3 (3=41-60%)

## CCn1c(COC)c(-c2ccc(Cl)cc2)c(=O)c(C(=O)O)c1-c1ccc(Cl)c(Cl)c1 [Compound 7, 5-(4-chlorophenyl)-2-(3,4-dichlorophenyl)-1-ethyl-6-(methoxymethyl)-4-oxo-pyridine-3-carboxylic acid]
[2]
  percentage damage to the plant, ECHCG: 2 (2=21-40%)
Setaria faberi (SETFA) [3]
  Post-emergence Test SETFA, percentage damage to the plant (five-point scale): 4 (4=61-80%)
Lolium perenne (LOLPE) [4]
  Post-emergence Test LOLPE, percentage damage to the plant (five-point scale): 1 (1=0-20%)
[5]
  Post-emergence Test AMARE, percentage damage to the plant (five-point scale): 5 (5=81-100%)
[6]
  Post-emergence Test ECHCG, percentage damage to the plant (five-point scale): 4 (4=61-80%)
[7]
  Post-emergence Test IPOHE, percentage damage to the plant (five-point scale): 2 (2=21-40%)
Solanum nigrum (SOLNI) [8]
  Post-emergence Test SOLNI, percentage damage to the plant (five-point scale): 2 (2=21-40%)
Lolium perenne (LOLPE) [9]
  percentage damage to the plant, LOLPE: 1 (1=0-20%)
[10]
  percentage damage to the plant, IPOHE: 1 (1=0-20%)
Setaria faberi (SETFA) [11]
  percentage damage to the plant, SETFA: 2 (2=21-40%)
Solanum nigrum (SOLNI) [12]
  percentage damage to the plant, SOLNI: 1 (1=0-20%)
